The values that follow come from patent US11154519B2, “Inhibitors and their uses” (MEDICAL RESEARCH COUNCIL, priority 2015, dated 2021).

In general, Kd refers to the equilibrium constant for the complex coming apart. As a reminder, the EC50 is the concentration needed to bring the measured effect to its halfway point.

Data set [1] deals with HeLa cells. As to the kind of experiment: Cytoprotection against ER stress (tunicamycin), IncuCyte. The format is cell-based. The following applies: Homo sapiens, 250 ng/ml Tunicamycin, 72 hours, compound 0-20 μM, read-out: Cytoprotection from Tm (compared to GNB). The procedure:
(§1) HeLa cells (40,000 cells/ml) were plated in a 96-well plate and treated with different concentrations (0-20 μM) of a compound as indicated in the presence of 250 ng/ml Tunicamycin for 72 hours. To monitor cell death 1/2000 dilution of the CellTox green dye (Promega) was added to the media. The growth of the cells was monitored over time and pictures taken every 2 hours with the IncuCyte ZOOM system and analysed by the IncuCyte ZOOM software (Essen BioScience). […] Cytoprotection against ER stress can be measured by a suitable assay. In this instance, cytoprotection was measured in HeLa cells in which ER stress was elicited by the addition of media containing tunicamycin, a drug that blocks N-glycosylation, thereby preventing protein folding and inducing the unfolded protein response. Cell viability was then detected in the presence and absence of a compound listed in Table 1 after a set period of time, by monitoring cell growth over time. Cytoprotection from ER stress was measured in terms of the percentage increase in viable cells (relative to control) after ER stress.

The subject of data set [2] is protein synthesis. As to the kind of experiment: Assessment of translation rates (35S-methionine labelling). In kind it is cell-based. The procedure:
Cells (90,000 cells/ml) were plated in 12-well plates, treated as indicated, labelled with 100 μCi/mI 35S-methionine (Hartmann Analytic) for 10 minutes at 37° C., washed with ice-cold PBS and lysed in 120 μl Laemmli Buffer. Lysates were boiled at 95° C. for 5 minutes, sonicated and resolved on 4-12% Bolt Bis-Tris Plus Gels (Thermo Fisher Scientific). Gels were then stained with InstantBlue (Expedeon) and analyzed by phosphorimaging and quantified using ImageJ.
By monitoring translation rates as described above, the activities of R15A, R15B and R15A/B inhibitors can be defined as follows (also shown in FIG. 12). An R15A inhibitor has no effect on translation in unstressed cells but prolongs translation attenuation following stress. A selective R15B inhibitor transiently attenuate protein synthesis because R15A compensates for the inhibition of R15B.

In data set [3] the test system is HeLa cells. Put plainly: Cell death dose response (CellTox green, IncuCyte). The following applies: for Effect on cell death: IncuCyte, 0-20 μM. The format is cell-based. The procedure: Toxicity of the compounds is assessed using Cell viability Counting Kit-8 (Dojindo) or in a Incucyte (Essenbioscience) using both phase contrast and IncuCyte™ Cytotox Green Reagent.
as §1
EC50 were extrapolated from dose response experiments on cell death. Data from IncuCyte was plotted and analysed in Prism. The “% of cell death” for each data point. For each concentration there is a % of cell death vs time, the area under the curve was taken and plotted against log conc=>EC50 (analysis in Prism).

Another data set addresses T1, PPP1R15A-PP1 complex (Homo sapiens, UniProt O75807).
T1 construct: cDNAs encoding amino acids 325-636 of PPP1R15A and 340-698 of PPP1R15B were His-tagged and cloned into pMAL-c5x; made in house; host or cells: R15A: E. coli BL21-Gold (pMAL-c5x); PP1γ: Sf9 insect cells (baculovirus, pDW464)
As to the kind of experiment: SPR steady-state binding to R15A-PP1 holophosphatase. The note with it: SPR steady-state, MBP-R15A325-636-His captured on bio-PP1c, 10° C.; read-out: R15A (KD). As for the experimental part:
(§2) PPP1R15A^325-636 and PPP1R15B^340-698 were expressed and purified as follows: the cDNAs encoding amino acids 325-636 of PPP1R15A and 340-698 of PPP1R15B were His-tagged and cloned into pMAL-c5x. Recombinant PPP1R15A/B were expressed in BL21-Gold cells and purified by affinity chromatography on a HisTrap HP column (GE Healthcare), followed by a MBPTrap HP column (GE Healthcare). The proteins were analyzed on BOLT SDS-PAGE 4-12% Bis-Tris gels (Life Technologies) stained with SimplyBlue SafeStain (Life Technologies). cDNA encoding for human PP1γ was cloned into the baculovirus transfer vector pDW464 to add a biotin acceptor peptide (BAP). The vector also encodes for the E. coli biotin holoenzyme synthetase (BirA), so that BAP-tagged proteins can be biotinylated in vivo in Spodoptere frugiperda (Sf9) insect cells (Duffy et al., Anal. Biochem., 262, 122-128, 1998). The Bac-to-Bac baculovirus expression system (Life Technologies) was used to generate the recombinant bacmid DNA and Sf9 insect cells were used to amplify the viral stocks Cultures were harvested by centrifuging at 1,200 g for 15 minutes, cell pellets were resuspended in lysis buffer (50 mM Tris pH 7.4, 150 mM NaCl, 0.2% Triton, 5% Glycerol, 1 PiC tablet (Roche) per 50 ml and 0.2 mM PMSF) and followed by gentle sonication. The protein was first purified on a 5 ml HiTrap Q HP column (GE Healthcare) followed by a HiLoad 16/600 Superdex 200 column (GE Healthcare). The positive fractions confirmed by SDS-PAGE and western blot were pooled, concentrate to ˜1 μM and stored at −80° C.
(§3) A Biacore T200 (GE Healthcare) system was used for all experiments and biotinylated PP1 was captured using a Sensor Chip SA (GE Healthcare, catalog no BR-1005-31). The streptavidin coated surface was activated by 1 min injection with a solution of 50 mM NaOH and 1 M NaCl. Biotin-PP1 was diluted in the running buffer (50 mM Tris pH 7.5, 100 mM NaCl, 0.1 mM EGTA, 1 mM MnCl2, 0.05% Tween 20) and injected at approximately 300 nM concentration directly to streptavidin coated surface for 100 sec or to reach immobilization level of biotin-PP1 corresponding to ˜7000 RU. A blank immobilization was performed for one of the SA sensor chip surface to use as a reference.
(§4) With minor deviations, the same procedure and conditions were used in all binding experiments. Small molecules were stored as 50 mM stock solutions in 100% DMSO. Prior to determining binding constants, serial dilutions of either 12 or 8 concentrations of the compounds were prepared in the running buffer in a 96-well plate. Prior to each compound dilution series the regulatory subunit, R15A or R15B, was diluted to […] in the running buffer and captured on the biotin-PP1 surface, to form the holophosphatase complex on the sensor chip surface. Then, without regenerating the surface, the compound dilution series was injected onto the surface of the chip Sensorgrams were analyzed using the Biacore T200 evaluation software and the binding constants determined based on a steady-state model. Kinetic experiments are carried out using different concentrations of the compound and their respective equilibrium binding levels determined.
(§5) Surface Plasmon Resonance (SPR) was used to measure the binding affinity of compounds to the PPP1R15A/B-PP1 phosphatase complex. Biotin acceptor peptide (BAP) was fused to the N-terminus of PP1γ, which enables the biotinylation of the BAP-tagged protein in Sf9 insect cells. After purification the BAP-PP1γ protein was captured on a streptavidin sensor chip (SA-chip, GE healthcare) to a response level of ˜5.000 RU. Using controlled biotinylation enables orientated and uniform immobilization on the sensor chip surface. The PP1γ was then used to capture PPP1R15A/B and form a holophosphatase complex on the surface of the streptavidin chip. This complex can then be used to test binding of compounds. 10 μM PPP1R15A/B protein concentration was used to form the holophosphatase complex during a 80 s injection. […]

The target in another data set is T2, PPP1R15B-PP1 (Homo sapiens, UniProt Q5SWA1).
T2 construct: cDNAs encoding amino acids 325-636 of PPP1R15A and 340-698 of PPP1R15B were His-tagged and cloned into pMAL-c5x; made in house; host or cells: R15B: E. coli BL21-Gold (pMAL-c5x); PP1γ: Sf9 insect cells (baculovirus, pDW464)
Put plainly: SPR steady-state binding to R15B-PP1 holophosphatase. The following applies: SPR steady-state, MBP-R15B340-698-His captured on bio-PP1c, 10° C.; read-out: R15B (KD). The procedure:
as §2, §3, §4, §5

The target in a further data set is T3, PP1 (Homo sapiens, UniProt P36873).
T3 construct: made in house; host or cells: Sf9 insect cells (baculovirus, pDW464)
Put plainly: SPR binding to PP1 alone. The note with it: SPR steady-state, bio-PP1c surface. (In general: SPR reads the build-up and loss of mass on a sensor chip optically.)

The test system of the next data set is R15A or R15B. As to the kind of experiment: Selective binding towards R15A or R15B (based on SPR). Details: species or system human. As for the experimental part:
In one embodiment, the compounds of formula IB inhibit PPP1R15A and PPP1R15B. Inhibition of PPP1R15A and PPP1R15B can be determined from binding analysis. For example, binding can be analysed using SPR (surface plasmon resonance) to obtain KD values. A PPP1R15A and PPP1R15B inhibitor may be defined as a compound where the difference in KD values between R15A and R15B is no more than about 3 fold.
Small molecules were stored as 50 mM stock solutions in 100% DMSO. Prior to determining binding constants, serial dilutions of either 12 or 8 concentrations of the compounds were prepared in the running buffer in a 96-well plate. Prior to each compound dilution series the regulatory subunit, MBP-R15A^325-636-His or MBP-R15B^340-698-His, was diluted to 10 μM in the running buffer and captured on the bio-PP1c surface at a flow rate of 30 μl/min for 1 minute to form the holophosphatase complex on the sensor chip surface. This was followed by 1 minute stabilization period, to wash off any unspecific binding. Then, without regenerating the surface, the compound dilution series was injected onto the surface of the chip at a flow rate of 30 μl/min for 1 minute, followed by 2 minutes dissociation time. After each dilution series the surface was regenerated using 3 M NaCl for 90 seconds. After regeneration, SPR responses generally returned to base levels and the bio-PP1c surface was ready for the next compound dilution series. In order to be able to correct for small variations in DMSO concentration between samples, eight solvent samples ranging from 0.06 to 8% DMSO were injected every 50th cycle. The flow cell temperature was 10° C.
Sensorgrams were analyzed using the Biacore T200 evaluation software and the binding constants determined based on a steady-state model. Kinetic experiments are carried out using different concentrations of the compound and their respective equilibrium binding levels determined.

Data set [4] concerns protein synthesis. The note with it: unstressed cells; Tsaytler et al., Science 2011; cited from earlier work.
The test system of another data set is mice. Put plainly: Side effects of Guanabenz: activity of mice after dosing. In kind it is in vivo. The following applies: 10 mg/kg oral gavage. As for the experimental part: To assess whether of a compound of Example 1 had the side effects of Guanabenz, mice (n>3) were gavaged orally with 10 mg/kg of compound or Guanabenz. Their activity was monitored 30 minutes following dosing.
In humans, the adrenergic agonist activity of Guanabenz has side effects including drowsiness and coma at high doses (A. H. Hall, Ann Intern Med 102; 787-788; 1985). Due to of these side effects, Guanabenz is no longer used in human. It is anticipated that Guanabenz derivatives have the side effects of Guanabenz, associated with alpha-2 adrenergic activity.

T2 sequence (Q5SWA1 340-698): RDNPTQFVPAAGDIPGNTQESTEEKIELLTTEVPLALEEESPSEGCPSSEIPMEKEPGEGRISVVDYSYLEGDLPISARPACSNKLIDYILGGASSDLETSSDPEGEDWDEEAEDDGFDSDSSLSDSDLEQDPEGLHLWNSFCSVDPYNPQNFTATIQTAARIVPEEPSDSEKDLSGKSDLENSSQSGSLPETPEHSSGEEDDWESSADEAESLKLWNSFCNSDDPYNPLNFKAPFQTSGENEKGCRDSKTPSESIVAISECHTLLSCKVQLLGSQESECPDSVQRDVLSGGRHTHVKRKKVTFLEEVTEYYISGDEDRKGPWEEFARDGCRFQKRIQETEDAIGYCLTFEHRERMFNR
T2 sequence (P36873 whole entry partner, the tested form may be a part): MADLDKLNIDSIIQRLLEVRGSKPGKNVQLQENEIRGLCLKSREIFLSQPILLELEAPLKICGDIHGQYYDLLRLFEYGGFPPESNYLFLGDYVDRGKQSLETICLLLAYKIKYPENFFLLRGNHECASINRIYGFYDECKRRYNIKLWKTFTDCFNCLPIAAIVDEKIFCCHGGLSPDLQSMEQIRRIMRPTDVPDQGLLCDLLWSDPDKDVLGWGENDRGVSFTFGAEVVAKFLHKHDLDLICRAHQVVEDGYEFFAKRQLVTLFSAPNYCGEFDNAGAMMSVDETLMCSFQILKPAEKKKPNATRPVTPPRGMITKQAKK
T1 sequence (O75807 325-636): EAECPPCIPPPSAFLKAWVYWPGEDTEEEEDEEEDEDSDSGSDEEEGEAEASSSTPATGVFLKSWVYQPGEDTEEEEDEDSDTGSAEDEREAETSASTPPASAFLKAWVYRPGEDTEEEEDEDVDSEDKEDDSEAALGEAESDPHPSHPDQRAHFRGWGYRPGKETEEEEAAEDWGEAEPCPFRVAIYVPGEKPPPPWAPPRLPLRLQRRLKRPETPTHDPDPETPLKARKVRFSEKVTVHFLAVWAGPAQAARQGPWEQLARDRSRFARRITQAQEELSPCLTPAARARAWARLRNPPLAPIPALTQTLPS
T1 sequence (P36873 whole entry partner, the tested form may be a part): as the sequence (P36873 whole entry partner, the tested form may be a part) above
T3 sequence (P36873 whole entry): as the sequence (P36873 whole entry partner, the tested form may be a part) above

As to `[H]/N=C(\N)NN=Cc1ccc(F)c(F)c1Cl` [Compound 27, (E)-2-(2-chloro-3,4-difluorobenzylidene)hydrazine-1-carboximidamide], the Emax in the data set on HeLa cells [1] worked out at 57%. Also, in the data set with protein synthesis [2] (target(s) concluded to be inhibited), the “Effect on translation ⇒ Inhibits” value was “R15AB”. Moreover, in the data set with HeLa cells [3], the “Effect on cell death” value is “No”. Further, at PPP1R15A-PP1 complex, the dissociation constant Kd is 10.6 µM.
In the case of `[H]/N=C(\N)NN=Cc1cc(F)c(F)cc1Cl` [Compound 32, (E)-2-(2-chloro-4,5-difluorobenzylidene)hydrazine-1-carboximidamide], in the data set on HeLa cells [1], the Emax came out at 100%. For the same compound, the Effect on translation entry in the data set on protein synthesis [2] (35S-methionine labelling of cells) is given as “Persistent”. In addition, in the data set on HeLa cells [3], the “Effect on cell death” value is recorded as “No”. The Kd at PPP1R15A-PP1 complex stood at 4.82 ± 0.26 µM; at PPP1R15B-PP1 it was 17.3 µM.
On to `N=C(N)N/N=C/c1cc(Cl)c(Cl)cc1Cl` [Compound 4, (E)-2-(2,4,5-trichlorobenzylidene)hydrazine-1-carboximidamide], for which the Emax with HeLa cells [1] came to 80%. Further, the Kd on PP1 amounted to 332 µM; on PPP1R15A-PP1 complex, 0.457 ± 0.13 µM; on PPP1R15B-PP1 it was 0.022 ± 0.02 µM. Moreover, the “Selective binding towards R15A or R15B (based on SPR)” value in the data set on R15A or R15B is “R15AB (A PPP1R15A and PPP1R15B inhibitor may be defined as a compound where the difference in KD values between R15A and R15B is no more than about 3 fold)”. In addition, the “Effect on cell death” value in the data set on HeLa cells [3] is reported as “No”.
`N=C(N)N/N=C/c1c(Cl)cccc1Cl` [Guanabenz, reference compound]: in the data set on protein synthesis [4], the protein synthesis entry is listed as “doesn't inhibit protein synthesis in untressed cells”. In addition, in the data set on mice, the “activity of mice 30 minutes following dosing” value is recorded as “did not move 30 minutes after dosing”. The protein synthesis rates entry in the data set with protein synthesis [2] (unstressed cells, 10 μM, FIG. 12) is recorded as “doesn't inhibit protein synthesis in unstressed cell”.
Regarding `[H]/N=C(\N)NN=Cc1cnc(Cl)nc1Cl` [Compound 2, (E)-2-((2,4-dichloropyrimidin-5-yl)methylene)hydrazine-1-carboximidamide], the Emax with HeLa cells [1] worked out at 0%. In the data set with R15A or R15B, the “Selective binding towards R15A or R15B (based on SPR)” value is “R15B (A “selective inhibitor” may be defined as a compound where the difference in KD values between R15A and R15B is greater than 3 fold)”. For the same compound, the EC50 in the data set with HeLa cells [3] (Homo sapiens, area under % cell death vs time curve against log conc, read-out: Effect on cell death ⇒ EC50) stood at 7.71 µM. For the same compound, the “Effect on cell death” value in the data set on HeLa cells [3] is listed as “Yes”. Moreover, the dissociation constant Kd worked out at 46.4 ± 18.3 µM at PPP1R15A-PP1 complex and 9.22 µM on PPP1R15B-PP1.
Take `[H]/N=C(\N)NN=Cc1cccc(F)c1Cl` [Compound 25, (E)-2-(2-chloro-3-fluorobenzylidene)hydrazine-1-carboximidamide]: the Emax with HeLa cells [1] stood at 54%. Also, the Kd at PP1 is 3.65 µM; at PPP1R15A-PP1 complex, 6.18 ± 3.31 µM; at PPP1R15B-PP1, 9.22 ± 0.19 µM. Further, the “Selective binding towards R15A or R15B (based on SPR)” value in the data set on R15A or R15B is “R15AB (A PPP1R15A and PPP1R15B inhibitor may be defined as a compound where the difference in KD values between R15A and R15B is no more than about 3 fold)”. In the data set with HeLa cells [3], the “Effect on cell death” value is “No”.
